Results taken from US20080293696A1, “2-Aminoarylcarboxamides Useful as Cancer Chemotherapeutic Agents” (Bayer Pharmaceuticals Corporation, priority 2004, published 2008).

Tested on: PAKT/PKB (p-(S473) AKT) in H209 small cell lung carcinoma cells stimulated with Stem Cell Factor
Experiment: PAKT/PKB Cytoblot Assay with H209 cells (SCF-stimulated p-(S473) AKT)
Type: cell-based
Settings: Homo sapiens, NCI-H209, compound 1 hour, SCF 25 ng/mL 5 minutes
Procedure, shortened: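 H209 SCLC cells kept overnight in RPMI with 0.1% BSA were pretreated 1 h at 37 °C with compound (0.01–10 μM final), then stimulated with SCF 25 ng/mL for 5 min. After formaldehyde/methanol fixation, p-(S473) AKT was detected in-cell with HRP secondary and ECL chemiluminescence, and IC50 was derived.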

[1] = group: between 500 nM and 1 μM (units in value)

Row | Structure (SMILES) | IC50 (group: less than 500 nM) | also measured
1 | COC(=O)c1cc(CNc2ccccc2C(=O)Nc2ccc3c(c2)OC(F)(F)O3)ccn1 [Example 76, methyl 4-{[(2-{[(2,2-difluoro-1,3-benzodioxol-5-yl)amino]-carbonyl}phenyl)amino]methyl}pyridine-2-carboxylate] | < 500 nM | 
2 | CC1(C)OCC(CNC(=O)c2cc(CNc3ccccc3C(=O)Nc3ccc4c(c3)OC(F)(F)O4)ccn2)O1 (centres unmarked) [Example 78, 4-{[(2-{[(2,2-Difluoro-1,3-benzodioxol-5-yl)amino]carbonyl}phenyl)amino]methyl}-N-[(2,2-dimethyl-1,3-dioxolan-4-yl)methyl]pyridine-2-carboxamide] |  | IC50 [1]: 500 to 1000 nM
3 | O=C(NCC(O)CO)c1cc(CNc2ccccc2C(=O)Nc2ccc3c(c2)OC(F)(F)O3)ccn1 (centres unmarked) [Example 79, 4-{[(2-{[(2,2-Difluoro-1,3-benzodioxol-5-yl)amino]carbonyl}phenyl)amino]methyl}-N-(2,3-dihydroxypropyl)pyridine-2-carboxamide] | < 500 nM | 
4 | CN(C)C(=O)c1cc(CNc2ccccc2C(=O)Nc2ccc3c(c2)OC(F)(F)O3)ccn1 [Example 80, 4-{[(2-{[(2,2-Difluoro-1,3-benzodioxol-5-yl)amino]carbonyl}phenyl)amino]methyl}-N,N-dimethylpyridine-2-carboxamide] |  | IC50 [1]: 500 to 1000 nM
5 | CCOC(=O)c1cc(CNc2ccccc2C(=O)Nc2ccc3c(c2)OC(F)(F)O3)ccn1 [Example 82, Ethyl 4-{[(2-{[(2,2-difluoro-1,3-benzodioxol-5-yl)amino]carbonyl}phenyl)amino]methyl}pyridine-2-carboxylate] | < 500 nM | 
6 | CS(=O)(=O)CCNC(=O)c1cc(CNc2ccccc2C(=O)Nc2ccc3c(c2)OC(F)(F)O3)ccn1 [Example 83, 4-{[(2-{[(2,2-Difluoro-1,3-benzodioxol-5-yl)amino]carbonyl}phenyl)amino]methyl}-N-[2-(methylsulfonyl)ethyl]pyridine-2-carboxamide] | < 500 nM | 
7 | CCN1CCCC1CNC(=O)c1cc(CNc2ccccc2C(=O)Nc2ccc3c(c2)OC(F)(F)O3)ccn1 (centres unmarked) [Example 84, 4-{[(2-{[(2,2-difluoro-1,3-benzodioxol-5-yl)amino]carbonyl}phenyl)amino]methyl}-N-[(1-ethylpyrrolidin-2-yl)methyl]pyridine-2-carboxamide] |  | IC50 [1]: 500 to 1000 nM
8 | CCN(CC)CCCNC(=O)c1cc(CNc2ccccc2C(=O)Nc2ccc3c(c2)OC(F)(F)O3)ccn1 [Example 87, N-[3-(diethylamino)propyl]-4-{[(2-{[(2,2-difluoro-1,3-benzodioxol-5-yl)amino]carbonyl}phenyl)amino]methyl}pyridine-2-carboxamide] | < 500 nM | 
9 | COCCCNC(=O)c1cc(CNc2ccccc2C(=O)Nc2ccc3c(c2)OC(F)(F)O3)ccn1 [Example 89, 4-{[(2-{[(2,2-difluoro-1,3-benzodioxol-5-yl)amino]carbonyl}phenyl)amino]methyl}-N-(3-methoxypropyl)pyridine-2-carboxamide] | < 500 nM | 
10 | CN(C)CCCCNC(=O)c1cc(CNc2ccccc2C(=O)Nc2ccc3c(c2)OC(F)(F)O3)ccn1 [Example 90, 4-{[(2-{[(2,2-difluoro-1,3-benzodioxol-5-yl)amino]carbonyl}phenyl)amino]methyl}-N-[4-(dimethylamino)butyl]pyridine-2-carboxamide] |  | IC50 [1]: 500 to 1000 nM
11 | O=C(NCCO)c1cc(CNc2ccccc2C(=O)Nc2ccc3c(c2)OC(F)(F)O3)ccn1 [Example 91, 4-{[(2-{[(2,2-difluoro-1,3-benzodioxol-5-yl)amino]carbonyl}phenyl)amino]methyl}-N-(2-hydroxyethyl)pyridine-2-carboxamide] | < 500 nM | 
12 | O=C(NCCCN1CCCC1)c1cc(CNc2ccccc2C(=O)Nc2ccc3c(c2)OC(F)(F)O3)ccn1 [Example 92, 4-{[(2-{[(2,2-difluoro-1,3-benzodioxol-5-yl)amino]carbonyl}phenyl)amino]methyl}-N-(3-pyrrolidin-1-ylpropyl)pyridine-2-carboxamide] | < 500 nM | 
13 | O=C(NCCCO)c1cc(CNc2ccccc2C(=O)Nc2ccc3c(c2)OC(F)(F)O3)ccn1 [Example 93, 4-{[(2-{[(2,2-difluoro-1,3-benzodioxol-5-yl)amino]carbonyl}phenyl)amino]methyl}-N-(3-hydroxypropyl)pyridine-2-carboxamide] |  | IC50 (group: between 1 and 3 μM): 1000 to 3000 nM
14 | O=C(NCCc1cnc[nH]1)c1cc(CNc2ccccc2C(=O)Nc2ccc3c(c2)OC(F)(F)O3)ccn1 [Example 94, 4-{[(2-{[(2,2-difluoro-1,3-benzodioxol-5-yl)amino]carbonyl}phenyl)amino]methyl}-N-[2-(1H-imidazol-5-yl)ethyl]pyridine-2-carboxamide] |  | IC50 [1]: 500 to 1000 nM
15 | O=C(NCCCn1ccnc1)c1cc(CNc2ccccc2C(=O)Nc2ccc3c(c2)OC(F)(F)O3)ccn1 [Example 96, 4-{[(2-{[(2,2-difluoro-1,3-benzodioxol-5-yl)amino]carbonyl}phenyl)amino]methyl}-N-[3-(1H-imidazol-1-yl)propyl]pyridine-2-carboxamide] | < 500 nM | 
16 | O=C(NCCCCN1CCCC1)c1cc(CNc2ccccc2C(=O)Nc2ccc3c(c2)OC(F)(F)O3)ccn1 [Example 97, 4-{[(2-{[(2,2-difluoro-1,3-benzodioxol-5-yl)amino]carbonyl}phenyl)amino]methyl}-N-(4-pyrrolidin-1-ylbutyl)pyridine-2-carboxamide] | < 500 nM | 
17 | O=C(NCCCN1CCCCC1)c1cc(CNc2ccccc2C(=O)Nc2ccc3c(c2)OC(F)(F)O3)ccn1 [Example 98, 4-{[(2-{[(2,2-difluoro-1,3-benzodioxol-5-yl)amino]carbonyl}phenyl)amino]methyl}-N-(3-piperidin-1-ylpropyl)pyridine-2-carboxamide] |  | IC50 [1]: 500 to 1000 nM
18 | O=C(O)CCNC(=O)c1cc(CNc2ccccc2C(=O)Nc2ccc3c(c2)OC(F)(F)O3)ccn1 [Example 99, N-[(4-{[(2-{[(2,2-difluoro-1,3-benzodioxol-5-yl)amino]carbonyl}phenyl)amino]methyl}pyridin-2-yl)carbonyl]beta-alanine] |  | IC50 (group: between 1 and 3 μM): 1000 to 3000 nM
19 | O=C(NCCc1c[nH]c2ccccc12)c1cc(CNc2ccccc2C(=O)Nc2ccc3c(c2)OC(F)(F)O3)ccn1 [Example 102, 4-{[(2-{[(2,2-difluoro-1,3-benzodioxol-5-yl)amino]carbonyl}phenyl)amino]methyl}-N-[2-(1H-indol-3-yl)ethyl]pyridine-2-carboxamide] |  | IC50 (group: between 1 and 3 μM): 1000 to 3000 nM
20 | O=C(NCc1ccncc1)c1cc(CNc2ccccc2C(=O)Nc2ccc3c(c2)OC(F)(F)O3)ccn1 [Example 104, 4-{[(2-{[(2,2-difluoro-1,3-benzodioxol-5-yl)amino]carbonyl}phenyl)amino]methyl}-N-(pyridin-4-ylmethyl)pyridine-2-carboxamide] | < 500 nM | 
21 | CCCCN(CCCC)CCCNC(=O)c1cc(CNc2ccccc2C(=O)Nc2ccc3c(c2)OC(F)(F)O3)ccn1 [Example 105, N-[3-(dibutylamino)propyl]-4-{[(2-{[(2,2-difluoro-1,3-benzodioxol-5-yl)amino]carbonyl}phenyl)amino]methyl}pyridine-2-carboxamide] |  | IC50 [1]: 500 to 1000 nM
22 | CCN(CCNC(=O)c1cc(CNc2ccccc2C(=O)Nc2ccc3c(c2)OC(F)(F)O3)ccn1)c1cccc(C)c1 [Example 106, 4-{[(2-{[(2,2-difluoro-1,3-benzodioxol-5-yl)amino]carbonyl}phenyl)amino]methyl}-N-{2-[ethyl(3-methylphenyl)amino]ethyl}pyridine-2-carboxamide] |  | IC50 (group: between 1 and 3 μM): 1000 to 3000 nM
23 | CN(CCCNC(=O)c1cc(CNc2ccccc2C(=O)Nc2ccc3c(c2)OC(F)(F)O3)ccn1)c1ccccc1 [Example 107, 4-{[(2-{[(2,2-difluoro-1,3-benzodioxol-5-yl)amino]carbonyl}phenyl)amino]methyl}-N-{3-[methyl(phenyl)amino]propyl}pyridine-2-carboxamide] |  | IC50 (group: between 1 and 3 μM): 1000 to 3000 nM

Now from value to compound, other results behind:

Row | IC50 (group: less than 500 nM) | Structure (SMILES) | also measured
24 | < 500 nM | CN(C)CCNC(=O)c1cc(CNc2ccccc2C(=O)Nc2ccc3c(c2)OC(F)(F)O3)ccn1 [Example 85, 4-{[(2-{[(2,2-difluoro-1,3-benzodioxol-5-yl)amino]carbonyl}phenyl)amino]methyl}-N-[2-(dimethylamino)ethyl]pyridine-2-carboxamide] | 
25 | < 500 nM | CN(C)CCCNC(=O)c1cc(CNc2ccccc2C(=O)Nc2ccc3c(c2)OC(F)(F)O3)ccn1 [Example 86, 4-{[(2-{[(2,2-difluoro-1,3-benzodioxol-5-yl)amino]carbonyl}phenyl)amino]methyl}-N-[3-(dimethylamino)propyl]pyridine2-carboxamide] | 
26 | < 500 nM | CCN(CC)CCNC(=O)c1cc(CNc2ccccc2C(=O)Nc2ccc3c(c2)OC(F)(F)O3)ccn1 [Example 88, N-[2-(diethylamino)ethyl]-4-{[(2{[(2,2-difluoro-1,3-benzodioxol-5-yl)amino]carbonyl}phenyl)amino]methyl}pyridine-2-carboxamide] | 
27 | < 500 nM | NC(=O)CCNC(=O)c1cc(CNc2ccccc2C(=O)Nc2ccc3c(c2)OC(F)(F)O3)ccn1 [Example 95, N-(3-amino-3-oxopropyl)-4-{[(2{[(2,2-difluoro-1,3-benzodioxol-5-yl)amino]carbonyl}phenyl)amino]methyl}pyridine-2-carboxamide] | 
28 | < 500 nM | CN(C)CCCCCNC(=O)c1cc(CNc2ccccc2C(=O)Nc2ccc3c(c2)OC(F)(F)O3)ccn1 [Example 100, 4-{[(2-{[(2,2-difluoro-1,3-benzodioxol-5-yl)amino]carbonyl}phenyl)amino]methyl)-N-[5-(dimethylamino)pentyl]pyridine2-carboxamide] | 
29 | < 500 nM | O=C(NCCOCCO)c1cc(CNc2ccccc2C(=O)Nc2ccc3c(c2)OC(F)(F)O3)ccn1 [Example 103, 4-{[(2-{[(2,2-difluoro-1,3-benzodioxol-5-yl)amino]carbonyl}phenyl)amino]methyl}-N-[2-(2-hydroxyethoxy)ethyl]pyridine-2carboxamide] | 
